Data: patent publication US6599894B1, “Amidinobenzylamine derivatives and their use as thrombin inhibitors” (AstŕaZeneca AB, priority 1999, dated 2003)

assay: Test E: determination of thrombin time ex vivo (bioavailability of active inhibitor after prodrug administration); settings: conscious rat, estimated from thrombin time or ecarin clotting time in plasma
Text: Determination of Thrombin Time Ex Vivo
The inhibition of thrombin after oral or parenteral administration of the compounds of formula I, dissolved in ethanol:Solutol™:water (5:5:90), were examined in conscious rats which, one or two days prior to the experiment, were equipped with a catheter for blood sampling from the carotid artery. On the experimental day blood samples were withdrawn at fixed times after the administration of the compound into plastic tubes containing 1 part sodium citrate solution (0.13 mol per L) and 9 parts of blood. The tubes were centrifuged to obtain platelet poor plasma. The plasma was used for determination of thrombin time or ecarin clotting time (ECT) as described below.
The citrated rat plasma, 100 μL, was diluted with a saline solution, 0.9%, 100 μL, and plasma coagulation was started by the addition of human thrombin (T 6769, Sigma Chem Co, USA or Hematologic Technologies) in a buffer solution, pH 7.4, 100 μL, or ecarin (Pentapharm). The clotting time was measured in an automatic device (KC 10, Amelung, Germany).
[(AUCpd/dose)/(AUCactive,parenteral/dose]×100

| Compound | oral and/or parenteral bioavailability as the corresponding active inhibitor (free amidine) |
| --- | --- |
| CON=C(N)c1ccc(CNC(=O)[C@@H]2CCN2C(=O)C(O)c2cc(Cl)cc(N(C)C)c2)cc1 (single isomer, unassigned) [Example 12, Ph(3-Cl,5-NMe2)-(R) or-(S)CH(OH)C(O)-Aze-Pab(OMe)] | exhibit oral and/or parenteral bioavailability in the rat |
| CON=C(N)c1ccc(CNC(=O)C2CCN2C(=O)C(O)c2cc(Cl)cc(N(C)C(C)=O)c2)cc1.O=C(O)C(F)(F)F (single isomer, unassigned) [Example 18, Ph(3-Cl,5-NMeAc)-(R) or-(S)CH(OH)C(O)-Aze-Pab(OMe)×TFA] | exhibit oral and/or parenteral bioavailability in the rat |
| CON=C(N)c1ccc(CNC(=O)C2CCN2C(=O)C(O)c2cccc(N3CCCC3=O)c2)cc1.O=C(O)C(F)(F)F (single isomer, unassigned) [Example 19, Ph(3-(1-Pyrrolidin-2-one))-(R) or-(S)CH(OH)C(O)-Aze-Pab(OMe)×TFA] | exhibit oral and/or parenteral bioavailability in the rat |
| CON=C(N)c1ccc(CNC(=O)C2CCN2C(=O)C(O)c2cccc(N(C)C)c2)cc1 [Example 2, Ph(3-N(Me)2)-(R)- or-(S)CH(OH)—CO-Aze-Pab(OMe)] | exhibit oral and/or parenteral bioavailability in the rat |
| Ph(3-Cl,5-NMe2)-(R) or -(S)CH(OH)C(O)-Aze-Pab(O-Et) [Example 13] | exhibit oral and/or parenteral bioavailability in the rat |
| Ph(3-Cl,5-NMe2)-(R) or -(S)CH(OH)C(O)-Aze-Pab(O-i-Pr) [Example 15] | exhibit oral and/or parenteral bioavailability in the rat |
